Data reported in US9981037B2, “Combination therapy of beta-glycolipids and antibodies for the treatment of immune-related disorders” (HADASIT MEDICAL RESEARCH SERVICES AND DEVELOPMENT LTD., priority 2008, dated 2018).

Columns and labels:
ob/ob mice [1] = assay: Metabolic syndrome model in ob/ob mice: serum glucose, AST, ALT, cholesterol, weight after oral feeding; assay type: in vivo
Procedure: Mice were fed a total volume of 0.2 ml by gastric intubation with an 18-gauge stainless steel feeding needle (Thomas Scientific). Mice were fed once a day for five consecutive days with either phosphate-buffered saline (PBS), hamster isotype control (IC 5 μg/feeding), anti CD3 antibody (5 ug/feeding), or β-glucosylceramide (GC), 100 μg/feeding (dissolved in ethanol and emulsified in PBS). Mice fed with the combination of anti-CD3 and GC received 5 ug anti-CD3 and 100 ug GC in 0.2 ml PBS. Mice were injected IP with 100 μg anti TGF-β one day before the feeding and than on alternative days another 4 injections, a total of 500 μg.
Sera from individual mice were obtained. Serum AST and ALT levels were measured by an automatic analyzer.
In order to investigate the potential effect of combining two different immune-modulatory compounds on an immune-related disorder such as the metabolic syndrome, the ob/ob leptin deficient mice that manifest insulin resistance, hypelipidemia, fatty liver, and diabetes, were used as an animal model.
Four groups of ob/ob mice were tested, groups 1 and 2 served as control groups (group of untreated mice and group of mice treated with GC and Isotype Control, respectively), group 3 were treated with anti CD3 (5 microgram) antibody and group 4 were orally administered with a combination of anti-CD3 (5 μg) antibody and β-glucosylceramide (GC, 100 μg) per dose for five consecutive days. Animals were assessed on days 10 and 28. The doses studied were based on previous studies of anti-CD3 and GC in animal models [Ochi, H., et al. Nat. Med. 12:627-635 (2006); Zigmond, E. et al. Gut 56:82-89 (2007); Ilan, Y. et al. Transplantation 83:458-467 (2007)]. Determination of hepatic fat content and inflammation was performed by measurement of serum Alanine aminotransferase (ALT) and Aspartate aminotransferase (AST) levels. Serum glucose and cholesterol levels were also assessed.

ob/ob mice [2] = assay: Pathologic analysis of pancreas, liver and muscle of ob/ob mice; assay type: in vivo; settings: vs PBS
Procedure: The liver, pancreas, and muscle were removed from control or treated mice and placed in 4% formalin followed by paraffin embedding. Five sections were prepared from each organ. The tissues were stained for heamtoxylin eosin and liver sections were additionally stained with oil-red-o. All sections were blindly scored by a pathologist.
The inventors next investigated the beneficial effect of the combined oral composition of anti-CD3 plus GC treatment of ob/ob mice by pathologic analysis of pancreas, liver and muscle. […] In addition, a reversal of muscle fiber thinning and increased nuclei was clearly observed in animals treated with the oral combination of anti-CD3 plus GC.

MLN cells = assay: Cytokine production (ELISA) by MLN cells or splenocytes of fed ob/ob mice stimulated in vitro with anti-CD3; assay type: in vivo; settings: in vitro 1 μg/ml anti-CD3 stimulation; vs PBS
Procedure: For cytokine assays, splenocytes or MLN cells were grown (10^6 cells per well) in serum-free medium X-VIVO 20 (BioWhittaker) with 1 ug/ml soluble anti-CD3 antibody. Supernatants were collected after 40 h for IL-2, IL-4, IL6, IL-10, IFN-γ, and IL-17, or after 72 h for TGF-β and quantitative ELISA was performed using paired antibodies and recombinant cytokines obtained from PharMingen according to their recommendations. When purified T-cells ([…] cells per well) were checked for cytokine secretion, they were stimulated with 1 ug/ml anti-CD3 in the presence of DCs (10×10^3 cells per well) for 40 or 72 h and the cytokine content in the supernatant was measured as outlined above. The tissue cytokine profile was determined for gut, liver, and pancreas. Part of the organ was weighed and homogenized on ice with TISSUEMISER (Fisher Scientific) in buffer containing PBS/BSA/TWEEN and protein inhibitor tablets (Roche). […]
To investigate the potential mechanisms by which oral combination of anti-CD3 plus GC affected the metabolic abnormalities describe above, the inventors next measured cytokine production by MLN cells obtained from the different experimental groups, that were then stimulated in vitro with 1 μg/ml anti-CD3 for five days. […] The inventors next measured cytokine levels in supernatants from homogenized tissues from ob/ob treated mice. […]

DCs from MLN = assay: TGF-β and IL-10 expression in CD11C+ DCs from MLN by RT PCR; assay type: in vivo, mice; settings: RT PCR relative to GAPDH; 3 days after feeding; reversed by anti-TGF-β
Procedure: MLN CD11C+ DCs were isolated by magnetic separation using anti CD11C microbeads (Miltenyi Biotec). Total RNA was isolated from cell pellets using the RNA easy Mini Kit (QIAGEN) and stored at −80° C. First strand cDNA synthesis was performed on 0.5-1 μg of total RNA for each RNA sample using Taqman reverse transcription reagents. The cDNA was amplified using sequence specific primers for IL-10, and TGF-β and real-time PCR mix (Applied Biosystems) in an ABI7500 cycler. The GAPDH gene was used as an endogenous control to normalize for differences in the amount of total RNA in each sample. All values were expressed as a fold increase or decrease relative to the expression of GAPDH.
To investigate the effect of feeding the anti-CD3 plus GC combination on DCs, the inventors first measured the expression of TGF-β and IL-10 in DCs from MLN. […] Injection of anti-TGF-β reversed the effect. The inventors then investigated the effect of DCs obtained from animals treated with the oral combination of anti-CD3 plus GC, or from the control PBS treated animals, on T-cells harvested from mice fed either with PBS or with the combination of anti-CD3 plus GC. T cells were stimulated with anti-CD3 in vitro. […]

In the case of β-glucosylceramide [GC], the weight of animals (ob/ob mice [1]; compared to control) is reported as “No change”, the “serum AST levels” value (ob/ob mice [1]; ob/ob mice fed daily for 5 days, 10 days after last feeding, PBS 416 U/l) is reported as 310 U/l and the Serum cholesterol levels (ob/ob mice [1]; ob/ob mice fed daily for 5 days, PBS 218 mg %) is reported as 225 mg %. For the same substance, the blood glucose (ob/ob mice [1]; ob/ob mice fed daily for 5 days, tested 10 days after last feeding, PBS 367 mg %) was 337 mg %, the hepatic fat accumulation (ob/ob mice [2]) was “some effect” and the pancreatic hyperplasia (ob/ob mice [2]) was “some effect”. For the same substance, the “production of IL-10 by MLN cells” value (MLN cells) was “No effects”, the “production of TGF-β by MLN cells” value (MLN cells) was “No effects” and the “IL-10 expression in DCs from MLN” value (DCs from MLN) was “not”. For the same substance, the “TGF-β expression in DCs from MLN” value (DCs from MLN) was “not”.
